Results taken from patent US9573964B2, “Oxygen linked pyrimidine derivatives” (CTI BIOPHARMA CORP., priority 2005, dated 2017).

Columns and labels:
[1] = test system: MV4-11 (acute myeloid leukemia cell line); assay: Cell-based proliferation assay for GI50, MV4-11; details: Homo sapiens; MV4-11 cells, 96 h treatment
Procedure: (§1) Human cancer cell lines HL60 (acute myeloid leukemia cell line), Colo205 (colon adenocarcinoma cell line), HEL92.1.7 (erythroleukemia cell line) and MV4-11 (acute myeloid leukemia cell line) were obtained from ATCC. They were cultivated in the media according to the ATCC work instructions. Colo205 cells were seeded in 96-wells plate at 5000 cells per well. HEL92.1.7 and MV4-11 cells were seeded at 6000 cells per well while HL60 cells were seeded at 8000 cells per well in 96 well plate. The plates were incubated at 37° C., 5% CO2, for 24 h. Cells were treated with compounds at various concentrations for 96 h. Cell growth was then monitored using Celltiter96 Aqueous One Solution Cell Proliferation Assay from Promega (Madison Wis.). Dose response curves were plotted to determine GI50 values for the compounds using XL-fit (ID Business Solution, Emeryville, Calif.).

JAK2 = target: T1, JAK2 (Homo sapiens, UniProt O60674); assay: In vitro kinase activity assay (PKLight), JAK2; type: biochemical
T1 construct: purchased Invitrogen PV4210
T1 sequence (O60674 whole entry): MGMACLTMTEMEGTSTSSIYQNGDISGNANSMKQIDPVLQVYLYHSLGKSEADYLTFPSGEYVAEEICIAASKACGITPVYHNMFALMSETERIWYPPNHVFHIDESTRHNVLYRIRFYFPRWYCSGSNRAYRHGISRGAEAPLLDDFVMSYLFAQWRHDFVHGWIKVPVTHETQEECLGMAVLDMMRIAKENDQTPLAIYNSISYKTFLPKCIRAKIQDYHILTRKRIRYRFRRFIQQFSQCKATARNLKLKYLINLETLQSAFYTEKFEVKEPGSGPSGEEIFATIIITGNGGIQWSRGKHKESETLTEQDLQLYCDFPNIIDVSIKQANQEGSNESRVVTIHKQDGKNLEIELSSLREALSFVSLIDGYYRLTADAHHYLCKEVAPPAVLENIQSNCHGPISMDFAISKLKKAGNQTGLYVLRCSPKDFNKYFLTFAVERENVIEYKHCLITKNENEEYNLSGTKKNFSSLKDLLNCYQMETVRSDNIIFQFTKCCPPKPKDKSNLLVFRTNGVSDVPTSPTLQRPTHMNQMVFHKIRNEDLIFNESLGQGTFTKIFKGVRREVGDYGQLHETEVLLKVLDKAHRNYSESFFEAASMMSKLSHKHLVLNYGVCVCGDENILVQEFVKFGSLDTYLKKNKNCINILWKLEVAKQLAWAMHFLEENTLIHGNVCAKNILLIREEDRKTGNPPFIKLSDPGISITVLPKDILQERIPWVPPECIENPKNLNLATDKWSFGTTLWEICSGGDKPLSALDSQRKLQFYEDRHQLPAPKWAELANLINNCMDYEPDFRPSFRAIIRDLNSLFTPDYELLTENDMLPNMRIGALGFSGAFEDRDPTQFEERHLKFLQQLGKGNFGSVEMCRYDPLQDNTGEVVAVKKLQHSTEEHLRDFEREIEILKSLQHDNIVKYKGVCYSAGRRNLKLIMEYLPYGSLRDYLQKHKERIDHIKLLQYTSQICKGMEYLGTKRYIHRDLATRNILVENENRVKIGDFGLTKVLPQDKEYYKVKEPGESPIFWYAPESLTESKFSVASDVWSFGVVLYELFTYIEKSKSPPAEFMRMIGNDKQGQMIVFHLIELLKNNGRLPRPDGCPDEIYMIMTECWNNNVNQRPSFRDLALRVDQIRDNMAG
Procedure: (§2) All assays were carried out in 384-well white microtiter plates using the PKLight assay system from Cambrex (East Rutherford, N.J.). This assay platform is essentially a luminometric assay for the detection of ATP in the reaction using a luciferase-coupled reaction. For CDK2/Cyclin A assay, the reaction mixture consisted of the following components in 25 μL assay buffer (50 mM Hepes pH 7.5, 10 mM MgCl2, 5 mM MnCl2, 5 mM BGP, 1 mM DTT, 0.1 mM sodium orthovanadate), 1.4 μg/mL of CDK2/Cyclin A complex, 0.5 μM of RbING substrate (Invitrogen, Cat #PV2939) and 0.5 μM of ATP. The compounds were tested at 8 concentrations prepared from 4-fold serial dilution starting at 10 μM. The reaction was incubated at room temperature for 2 hr. 13 μL of PKLight ATP detection reagent was added and the reaction was incubated for 10 min. Luminescence signals were detected on a multi-label plate reader (Victor^2 V 1420, Perkin-Elmer). The other kinase assays were identical except for the following differences in reagents. For FLT3 assays, the reaction contained 2.0 μg/mL FLT3 enzyme, 5 μM of poly(Glu,Tyr) substrate (Sigma, Cat #P0275) and 4 μM of ATP. For JAK2 assays, the reaction contained 0.6 μg/mL of JAK2 enzyme, 2 μM of poly(Glu,Ala,Tyr) substrate (Sigma, Cat #P3899) and 0.2 μM of ATP. […] The analytical software, Prism 4.0 (GraphPad Software Pte Ltd) was used to generate IC50 values from the data.

CDK2/CyclinA = target: T2, CDK2/CyclinA (Homo sapiens, UniProt P24941); assay: In vitro kinase activity assay (PKLight), CDK2/Cyclin A; type: biochemical; details: 0.5 μM ATP
T2 construct: purchased Invitrogen PV3267
Procedure: The recombinant enzymes (CDK2/CyclinA, FLT3, JAK2 and JAK2 V617F) were purchased from Invitrogen (Cat #PV3267, 3182, 4210 and 4347 respectively). All assays were carried out in 384-well white microtiter plates using the PKLight assay system from Cambrex (East Rutherford, N.J.). This assay platform is essentially a luminometric assay for the detection of ATP in the reaction using a luciferase-coupled reaction. For CDK2/Cyclin A assay, the reaction mixture consisted of the following components in 25 μL assay buffer (50 mM Hepes pH 7.5, 10 mM MgCl2, 5 mM MnCl2, 5 mM BGP, 1 mM DTT, 0.1 mM sodium orthovanadate), 1.4 μg/mL of CDK2/Cyclin A complex, 0.5 μM of RbING substrate (Invitrogen, Cat #PV2939) and 0.5 μM of ATP. The compounds were tested at 8 concentrations prepared from 4-fold serial dilution starting at 10 μM. The reaction was incubated at room temperature for 2 hr. 13 μL of PKLight ATP detection reagent was added and the reaction was incubated for 10 min. Luminescence signals were detected on a multi-label plate reader (Victor^2 V 1420, Perkin-Elmer). The other kinase assays were identical except for the following differences in reagents. For FLT3 assays, the reaction contained 2.0 μg/mL FLT3 enzyme, 5 μM of poly(Glu,Tyr) substrate (Sigma, Cat #P0275) and 4 μM of ATP. For JAK2 assays, the reaction contained 0.6 μg/mL of JAK2 enzyme, 2 μM of poly(Glu,Ala,Tyr) substrate (Sigma, Cat #P3899) and 0.2 μM of ATP. For JAK2 V617F mutant assays, the reaction contained 8.0 μg/mL of JAK2 mutant enzyme, 2 μM of poly(Glu,Ala,Tyr) substrate (Sigma, Cat #P3899) and 0.2 μM of ATP. The analytical software, Prism 4.0 (GraphPad Software Pte Ltd) was used to generate IC50 values from the data.

JAK2 V617F = target: T3, JAK2 V617F (Homo sapiens, UniProt O60674, V617F); assay: In vitro kinase activity assay (PKLight), JAK2 V617F mutant; type: biochemical
T3 construct: purchased Invitrogen PV4347
T3 sequence (O60674 whole entry V617F): as the sequence (O60674 whole entry) above, with V617F counted along it
Procedure: as §2

FLT3 = target: T4, FLT3 (Homo sapiens, UniProt P36888); assay: In vitro kinase activity assay (PKLight), FLT3; type: biochemical
T4 construct: purchased Invitrogen PV3182
T4 sequence (P36888 27-993): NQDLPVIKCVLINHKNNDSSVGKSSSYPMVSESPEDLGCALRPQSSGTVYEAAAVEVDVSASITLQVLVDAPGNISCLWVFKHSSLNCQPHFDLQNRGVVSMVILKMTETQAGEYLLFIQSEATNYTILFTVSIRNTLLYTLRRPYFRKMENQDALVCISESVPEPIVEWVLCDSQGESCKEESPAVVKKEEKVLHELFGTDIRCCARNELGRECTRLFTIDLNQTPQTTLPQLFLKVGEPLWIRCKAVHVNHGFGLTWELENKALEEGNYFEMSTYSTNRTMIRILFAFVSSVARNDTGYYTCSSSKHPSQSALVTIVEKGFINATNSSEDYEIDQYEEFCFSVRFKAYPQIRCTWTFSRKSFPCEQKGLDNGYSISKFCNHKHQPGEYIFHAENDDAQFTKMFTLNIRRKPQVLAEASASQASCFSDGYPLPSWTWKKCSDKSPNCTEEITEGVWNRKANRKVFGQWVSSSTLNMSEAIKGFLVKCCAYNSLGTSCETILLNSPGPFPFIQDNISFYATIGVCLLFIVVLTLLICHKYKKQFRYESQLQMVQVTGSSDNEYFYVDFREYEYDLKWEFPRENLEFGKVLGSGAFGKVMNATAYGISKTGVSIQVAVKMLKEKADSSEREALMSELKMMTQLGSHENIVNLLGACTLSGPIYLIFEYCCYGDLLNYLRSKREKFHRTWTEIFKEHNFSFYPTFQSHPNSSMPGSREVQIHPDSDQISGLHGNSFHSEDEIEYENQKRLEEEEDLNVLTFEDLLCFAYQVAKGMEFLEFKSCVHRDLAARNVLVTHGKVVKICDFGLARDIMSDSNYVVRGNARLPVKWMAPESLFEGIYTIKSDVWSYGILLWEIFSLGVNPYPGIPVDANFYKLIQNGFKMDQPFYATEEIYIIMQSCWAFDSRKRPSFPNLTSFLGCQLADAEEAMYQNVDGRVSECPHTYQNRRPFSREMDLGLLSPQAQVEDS
Procedure: as §2

[2] = test system: HL60 (acute myeloid leukemia cell line); assay: Cell-based proliferation assay for GI50, HL60; details: Homo sapiens, HL-60; HL60 cells, 96 h treatment
Procedure: as §1

[3] = test system: Colo205 (colon adenocarcinoma cell line); assay: Cell-based proliferation assay for GI50, Colo205; details: Homo sapiens, COLO 205; Colo205 cells, 96 h treatment
Procedure: as §1

[4] = test system: HEL92.1.7 (erythroleukemia cell line); assay: Cell-based proliferation assay for GI50, HEL92.1.7; details: Homo sapiens, HEL 92.1.7; HEL92.1.7 cells, 96 h treatment
Procedure: as §1

GI50 [1]: ≤ 1000 nM
IC50 (JAK2): ≤ 1000 nM
IC50 (CDK2/CyclinA): > 5000 nM
IC50 (JAK2 V617F): ≤ 1000 nM
IC50 (FLT3): ≤ 1000 nM
GI50 [2]: ≤ 1000 nM
GI50 [3]: 1000 to 5000 nM
GI50 [4]: ≤ 1000 nM
Compound: COc1ccc2cc1COC/C=C/COCc1cc(ccc1OCCN1CCCC1)Nc1nccc-2n1 [Compound 14]
